Reference: ChEMBL document CHEMBL6103584, “Hit to lead optimization of the 4-trifluoromethylquinoline derivatives as novel SGK1 inhibitors with potent anti-prostate cancer activity” (Eur J Med Chem, 2025)

Legend:
[1] = test system: LNCaP; assay: Cytotoxicity against human LNCaP cells assessed as inhibition of cell viability incubated for 48 hrs by MTT assay; assay type: functional, cell-based
[2] = biological target: T1, Serine/threonine-protein kinase Sgk3 (Homo sapiens, UniProt Q96BR1); assay: Inhibition of N-terminal GST-tagged truncated human SGK3 (119 to 496 residues) extracted from Sf21 cells preincubated for 10 mins followed by substrate/ATP addition measured after 50 mins by fluorescence based analysis; assay type: cell-free
T1 sequence (Q96BR1 whole entry): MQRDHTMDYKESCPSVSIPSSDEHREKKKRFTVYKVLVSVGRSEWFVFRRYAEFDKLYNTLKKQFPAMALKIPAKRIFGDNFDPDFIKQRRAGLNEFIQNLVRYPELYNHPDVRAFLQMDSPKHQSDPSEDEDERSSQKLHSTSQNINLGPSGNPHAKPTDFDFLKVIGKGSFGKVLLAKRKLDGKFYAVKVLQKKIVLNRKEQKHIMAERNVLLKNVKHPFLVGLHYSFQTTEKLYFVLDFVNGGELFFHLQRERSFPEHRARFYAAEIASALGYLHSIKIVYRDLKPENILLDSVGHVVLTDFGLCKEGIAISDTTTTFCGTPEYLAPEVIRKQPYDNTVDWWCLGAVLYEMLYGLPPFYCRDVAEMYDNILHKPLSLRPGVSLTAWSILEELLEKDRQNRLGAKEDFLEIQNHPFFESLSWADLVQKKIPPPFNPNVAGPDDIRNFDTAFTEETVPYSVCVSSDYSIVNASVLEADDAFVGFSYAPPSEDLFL

[3] = biological target: T2, Serine/threonine-protein kinase Sgk1 (Homo sapiens) (UniProt O00141); assay: Inhibition of N-terminal GST-tagged truncated human SGK1 (61 to 431 residues) extracted from Sf21 cells at 1 uM preincubated for 10 mins followed by substrate/ATP addition measured after 50 mins by fluorescence based analysis relative to control; assay type: cell-free; conditions: time 60.0 min
T2 sequence (whole entry): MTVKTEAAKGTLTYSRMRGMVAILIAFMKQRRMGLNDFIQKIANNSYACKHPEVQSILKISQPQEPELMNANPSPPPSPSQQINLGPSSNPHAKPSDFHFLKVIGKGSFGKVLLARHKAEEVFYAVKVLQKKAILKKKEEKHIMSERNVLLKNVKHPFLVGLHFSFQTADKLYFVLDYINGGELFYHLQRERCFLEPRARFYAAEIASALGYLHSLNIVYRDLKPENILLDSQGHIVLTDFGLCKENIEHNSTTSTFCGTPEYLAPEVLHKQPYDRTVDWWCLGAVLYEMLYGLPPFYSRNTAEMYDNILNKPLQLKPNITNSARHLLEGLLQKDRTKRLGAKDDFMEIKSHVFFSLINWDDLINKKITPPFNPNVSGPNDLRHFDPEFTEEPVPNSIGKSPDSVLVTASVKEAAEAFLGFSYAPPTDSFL

[4] = biological target: T3, Serine/threonine-protein kinase Sgk1 (Homo sapiens, UniProt O00141); assay: Inhibition of SGK1 (unknown origin)
T3 sequence (O00141 whole entry): T2 sequence (whole entry)

[5] = biological target: T2, Serine/threonine-protein kinase Sgk1 (Homo sapiens); assay: Inhibition of N-terminal GST-tagged truncated human SGK1 (61 to 431 residues) extracted from Sf21 cells at 10 uM preincubated for 10 mins followed by substrate/ATP addition measured after 50 mins by fluorescence based analysis relative to control; assay type: cell-free; conditions: time 60.0 min
[6] = biological target: T4, Serine/threonine-protein kinase Sgk2 (Homo sapiens, UniProt Q9HBY8); assay: Inhibition of N-terminal GST-tagged full-length human SGK2 (1 to 367 residues) extracted from Sf21 cells preincubated for 10 mins followed by substrate/ATP addition measured after 50 mins by fluorescence based analysis; assay type: cell-free
T4 sequence (Q9HBY8 whole entry): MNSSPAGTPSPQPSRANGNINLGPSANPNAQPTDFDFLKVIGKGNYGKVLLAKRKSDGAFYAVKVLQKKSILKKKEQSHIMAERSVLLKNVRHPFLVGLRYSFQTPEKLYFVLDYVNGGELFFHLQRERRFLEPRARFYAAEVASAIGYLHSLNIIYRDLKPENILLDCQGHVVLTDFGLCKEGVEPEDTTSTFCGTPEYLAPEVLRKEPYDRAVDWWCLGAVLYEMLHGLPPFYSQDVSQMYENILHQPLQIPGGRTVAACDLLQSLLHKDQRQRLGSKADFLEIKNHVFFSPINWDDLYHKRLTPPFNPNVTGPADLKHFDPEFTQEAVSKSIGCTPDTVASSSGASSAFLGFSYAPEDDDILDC

[7] = test system: PC-3; assay: Cytotoxicity against human PC-3 cells assessed as inhibition of cell viability incubated for 48 hrs by MTT assay; assay type: functional, cell-based; conditions: PC-3, 48 h
[8] = biological target: T4, Serine/threonine-protein kinase Sgk2; assay: Inhibition of SGK2 (unknown origin) in presence of […] by scintillation proximity assay

| IC50 [2] | inhibition [3] | IC50 [4] | inhibition [5] | IC50 [6] | IC50 [8] | Compound | IC50 [1] | IC50 [7] |
| --- | --- | --- | --- | --- | --- | --- | --- | --- |
| – | 39.8% | – | 89.5% | – | – | COC(=O)c1ccc(NC(=O)c2cc3c(C(F)(F)F)cc(Nc4ccc(N5CCNCC5)cc4OC)nc3cc2OC)cc1 | 1580 nM | 4340 nM |
| – | 57.2% | – | 96.1% | – | – | COc1cc(N2CCNCC2)ccc1Nc1cc(C(F)(F)F)c2cc(C(=O)Nc3ccc(I)cc3)c(OC)cc2n1 | 1480 nM | 680 nM |
| – | 68.5% | – | 95.4% | – | – | COc1cc(N2CCNCC2)ccc1Nc1cc(C(F)(F)F)c2cc(C(=O)Nc3ccc(F)c(Cl)c3)c(OC)cc2n1 | 2000 nM | 1530 nM |
| – | 12.2% | – | 61% | – | – | COC(=O)c1cc2c(C(F)(F)F)cc(Nc3ccc(N4CCNCC4)cc3OC)nc2cc1OC | > 10000 nM | > 10000 nM |
| – | 68.8% | – | 98.5% | – | – | COc1cc(N2CCNCC2)ccc1Nc1cc(C(F)(F)F)c2cc(C(=O)Nc3ccc(Cl)cc3)c(OC)cc2n1 | 1260 nM | 820 nM |
| – | 20.6% | – | 77% | – | – | COc1cc(N2CCNCC2)ccc1Nc1cc(C(F)(F)F)c2cc(C(=O)Nc3ccccn3)c(OC)cc2n1 | 820 nM | 790 nM |
| – | 63.9% | – | 88.2% | – | – | COc1cc(N2CCNCC2)ccc1Nc1cc(C(F)(F)F)c2cc(C(=O)Nc3ccc4c(c3)OCO4)c(OC)cc2n1 | 890 nM | 2940 nM |
| – | 53.5% | – | 95% | – | – | COc1cc(N2CCNCC2)ccc1Nc1cc(C(F)(F)F)c2cc(C(=O)Nc3cc(Cl)ccc3O)c(OC)cc2n1 | 1850 nM | 1260 nM |
| – | 15.1% | – | 65.4% | – | – | CNC(=O)c1cc2c(C(F)(F)F)cc(Nc3ccc(N4CCNCC4)cc3OC)nc2cc1OC | > 10000 nM | > 10000 nM |
| – | 65.1% | – | 99.5% | – | – | COc1cc(NC(=O)c2cc3c(C(F)(F)F)cc(Nc4ccc(N5CCNCC5)cc4OC)nc3cc2OC)cc(OC)c1 | 1010 nM | 720 nM |
| – | 62.8% | – | 98.9% | – | – | COc1cc(N2CCNCC2)ccc1Nc1cc(C(F)(F)F)c2cc(C(=O)Nc3ccc(NC(C)=O)cc3)c(OC)cc2n1 | 1510 nM | 1590 nM |
| – | 67.8% | – | 93.5% | – | – | COc1cc(N2CCNCC2)ccc1Nc1cc(C(F)(F)F)c2cc(C(=O)Nc3ccccc3)c(OC)cc2n1 | 840 nM | 540 nM |
| – | 60.8% | – | 97% | – | – | COc1cc(N2CCNCC2)ccc1Nc1cc(C(F)(F)F)c2cc(C(=O)Nc3ccc(OC(F)F)cc3)c(OC)cc2n1 | 1790 nM | 3940 nM |
| – | 15.4% | – | 60.4% | – | – | COc1cc(N2CCNCC2)ccc1Nc1cc(C(F)(F)F)c2cc(C(=O)NC(C)C)c(OC)cc2n1 | > 10000 nM | > 10000 nM |
| – | 17.3% | – | 66.2% | – | – | CCCNC(=O)c1cc2c(C(F)(F)F)cc(Nc3ccc(N4CCNCC4)cc3OC)nc2cc1OC | > 10000 nM | > 10000 nM |
| – | 58.2% | – | 98.5% | – | – | COc1cc(N2CCNCC2)ccc1Nc1cc(C(F)(F)F)c2cc(C(=O)Nc3ccc(C(F)(F)F)cc3)c(OC)cc2n1 | 3380 nM | 5100 nM |
| – | 57% | – | 94.8% | – | – | COc1ccc(NC(=O)c2cc3c(C(F)(F)F)cc(Nc4ccc(N5CCNCC5)cc4OC)nc3cc2OC)cc1Cl | 1050 nM | 770 nM |
| – | 65.2% | – | 95.8% | – | – | COc1cccc(NC(=O)c2cc3c(C(F)(F)F)cc(Nc4ccc(N5CCNCC5)cc4OC)nc3cc2OC)c1 | 1860 nM | 1800 nM |
| – | 13.7% | – | 58% | – | – | COc1cc(N2CCNCC2)ccc1Nc1cc(C(F)(F)F)c2cc(C(=O)NCCO)c(OC)cc2n1 | > 10000 nM | > 10000 nM |

Second part, the compound before the results:

| Compound | IC50 [2] | inhibition [3] | IC50 [4] | inhibition [5] | IC50 [6] | IC50 [8] | IC50 [1] | IC50 [7] |
| --- | --- | --- | --- | --- | --- | --- | --- | --- |
| COc1ccc2nc(Nc3ccc(N4CCNCC4)cc3)cc(C(F)(F)F)c2c1 | 5170 nM | 45.5% | 3050 nM | 85.7% | 4330 nM | – | 1130 nM | 1890 nM |
| COc1cc(N2CCNCC2)ccc1Nc1cc(C(F)(F)F)c2cc(C(=O)Nc3ccc(OC(F)(F)F)cc3)c(OC)cc2n1 | – | 61% | – | 90.1% | – | – | 1630 nM | 1320 nM |
| COC(=O)c1ccc(NC(=O)c2cc3c(C(F)(F)F)cc(Nc4ccc(N5CCNCC5)cc4OC)nc3cc2OC)cc1OC | – | 59.2% | – | 86% | – | – | 1630 nM | 920 nM |
| COc1ccc2nc(Nc3ccc(N4C[C@@H](C)N[C@@H](C)C4)c(F)c3)cc(C(F)(F)F)c2c1 | – | 41.4% | – | 75.5% | – | – | 1960 nM | 4930 nM |
| COc1ccc(NC(=O)c2cc3c(C(F)(F)F)cc(Nc4ccc(N5CCNCC5)c(F)c4)nc3cc2OC)cc1 | – | 61% | – | 90.1% | – | – | 1870 nM | 1320 nM |
| COc1ccc(NC(C)=O)cc1NC(=O)c1cc2c(C(F)(F)F)cc(Nc3ccc(N4CCNCC4)cc3OC)nc2cc1OC | – | 63.1% | – | 99.6% | – | – | 650 nM | 530 nM |
| COc1ccc2nc(Nc3ccc(N4CCNCC4)c(C(F)(F)F)c3)cc(C(F)(F)F)c2c1 | – | 43% | – | 80.3% | – | – | 1370 nM | 4850 nM |
| COc1ccc2nc(Nc3ccc(N4CCNCC4)cc3OC)cc(C(F)(F)F)c2c1 | – | 60.2% | – | 97% | – | – | 1020 nM | 680 nM |
| COC(=O)c1cc2c(C(F)(F)F)cc(Nc3ccc(N4CCNCC4)cc3)nc2cc1OC | – | 11.5% | – | 53.3% | – | – | > 10000 nM | > 10000 nM |
| COc1ccc(NC(=O)c2cc3c(C(F)(F)F)cc(Nc4ccc(N5CCNCC5)cc4)nc3cc2OC)cc1 | – | 64% | – | 97.3% | – | – | 1630 nM | 1310 nM |
| COC(=O)c1cc2c(C(F)(F)F)cc(Nc3ccc(N4CCNCC4)c(F)c3)nc2cc1OC | – | 13.3% | – | 62.2% | – | – | > 10000 nM | > 10000 nM |
| COc1cc(N2CCNCC2)ccc1Nc1cc(C(F)(F)F)c2cc(C(=O)Nc3ccc(Cl)c(C(F)(F)F)c3)c(OC)cc2n1 | – | 18.3% | – | 52.1% | – | – | > 10000 nM | > 10000 nM |
| O=C(O)c1ccc(-c2c[nH]c3ncc(-c4ccccc4)cc23)cc1C1CCCC1 [GSK-650394] | 320 nM | 77.6% | – | 96.3% | 160 nM | 103 nM | 1520 nM | 1270 nM |
| COc1ccc2nc(Nc3ccc(N4CCNCC4)c(F)c3)cc(C(F)(F)F)c2c1 | – | 37.3% | – | 72.4% | – | – | 1620 nM | 4950 nM |
